Laboratory results taken from patent US20220289728A1, “MODULATORS OF TREX1” (Constellation Pharmaceuticals, Inc., priority 2019, published 2022).

Experiments:
[1] = biological target: T1, human TREX2 (residues M44-A279) (Homo sapiens, UniProt Q9BQ50); experiment: TREX2 Biochemical Assay (fluorescence, dsDNA substrate degradation); conditions: 2.5 nM TREX2, 60 nM dsDNA substrate, 25 minutes at room temperature
T1 construct: human TREX2 (residues M44-A279, expressed in E. coli); His-TEV (His tag with TEV site) (N); made in house; host or cells: E. coli
T1 sequence (Q9BQ50 44-279 isoform Q9BQ50-1): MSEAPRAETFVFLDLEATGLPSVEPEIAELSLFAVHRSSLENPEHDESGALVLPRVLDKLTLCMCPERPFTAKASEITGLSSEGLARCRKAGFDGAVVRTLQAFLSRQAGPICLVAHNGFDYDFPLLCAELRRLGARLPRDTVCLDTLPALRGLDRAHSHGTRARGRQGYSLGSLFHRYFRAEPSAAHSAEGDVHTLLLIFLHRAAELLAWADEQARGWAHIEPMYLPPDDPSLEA
Procedure: Degradation of the dsDNA liberates free fluorophore to produce a fluorescent signal. Specifically, 7.5 μL of N-terminally His-Tev tagged human TREX2 (residues M44-A279, expressed in E. coli and purified in house) in reaction buffer (50 mM Tris (pH 7.4), 150 mM NaCl, 2 mM DTT, 0.1 mg/mL BSA, 0.01% (v/v) Tween-20 and 100 mM MgCl2) was added to a 384-well Black ProxiPlate Plus (Perkin Elmer) which already contained compound (150 nL) at varying concentrations as a 10 point dose-response in DMSO. To this was added 7.5 μL of dsDNA substrate (Strand A: 5′ TEX615/GCT AGG CAG 3′; Strand B: 5′ CTG CCT AGC/IAbRQSp (IDT)) in reaction buffer. Final concentrations were 2.5 nM TREX2, 60 nM dsDNA substrate in reaction buffer with 1.0% DMSO (v/v). After 25 minutes at room temperature, reactions were quenched by the addition of 5 μL of stop buffer (same as reaction buffer plus 200 mM EDTA). Final concentrations in the quenched reaction mixture were […] TREX2, 45 nM DNA and 50 mM EDTA in a volume of 20 μL. After a 5-minute incubation at room temperature, plates were read in a laser sourced Envision (Perkin-Elmer), measuring fluorescence at 615 nm following excitation w/570 nm light. IC50 values were calculated by comparing the measured fluorescence at 615 nm ratio relative to control wells pre-quenched w/stop buffer (100% inhibition) and no inhibitor (0% inhibition) controls as using non-linear least square four parameter fits and either Genedata or GraphPad Prism (GraphPad Software, Inc.).

full length human TREX1 = biological target: T2, full length human TREX1 (Homo sapiens, UniProt Q9NSU2); experiment: TREX1 Biochemical Assay (fluorescence, dsDNA substrate degradation); conditions: 150 pM TREX1, 60 nM dsDNA substrate, 25 minutes at room temperature
T2 construct: N-terminally His-Tev tagged full length human TREX1; His-TEV (His tag with TEV site) (N); made in house; host or cells: E. coli
T2 sequence (Q9NSU2 1-314): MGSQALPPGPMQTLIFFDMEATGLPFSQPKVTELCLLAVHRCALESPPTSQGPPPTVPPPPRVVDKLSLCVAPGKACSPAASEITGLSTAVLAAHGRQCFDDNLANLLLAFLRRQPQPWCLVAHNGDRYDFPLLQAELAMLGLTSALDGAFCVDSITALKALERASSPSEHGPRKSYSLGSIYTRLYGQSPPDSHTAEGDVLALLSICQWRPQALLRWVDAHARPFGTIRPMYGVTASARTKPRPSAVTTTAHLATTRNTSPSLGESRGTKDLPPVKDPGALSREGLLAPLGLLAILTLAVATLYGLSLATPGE
Procedure: Degradation of the dsDNA liberates free fluorophore to produce a fluorescent signal. Specifically, 7.5 μL of N-terminally His-Tev tagged full length human TREX1 (expressed in E. coli and purified in house) in reaction buffer (50 mM Tris (pH 7.4), 150 mM NaCl, 2 mM DTT, 0.1 mg/mL BSA, 0.01% (v/v) Tween-20 and 100 mM MgCl2) was added to a 384-well Black ProxiPlate Plus (Perkin Elmer) which already contained compound (150 nL) at varying concentrations as a 10 point dose-response in DMSO. To this was added 7.5 μL of dsDNA substrate (Strand A: 5′ TEX615/GCT AGG CAG 3′; Strand B: 5′ CTG CCT AGC/IAbRQSp (Integrated DNA Technologies)) in reaction buffer. Final concentrations were 150 pM TREX1, 60 nM dsDNA substrate in reaction buffer with 1.0% DMSO (v/v). After 25 minutes at room temperature, reactions were quenched by the addition of 5 μL of stop buffer (same as reaction buffer plus 200 mM EDTA). Final concentrations in the quenched reaction were 112.5 pM TREX1, 45 nM DNA and 50 mM EDTA in a volume of 20 μL. After a 5-minute incubation at room temperature, plates were read in a laser sourced Envision (Perkin-Elmer), measuring fluorescence at 615 nm following excitation w/570 nm light. IC50 values were calculated by comparing the measured fluorescence at 615 nm ratio relative to control wells pre-quenched w/stop buffer (100% inhibition) and no inhibitor (0% inhibition) controls as using non-linear least square four parameter fits and either Genedata or GraphPad Prism (GraphPad Software, Inc.).

HCT116 dual cells = experiment: HCT116 Cell Assay (Lucia luciferase reporter of Type I interferon induction); format: cell-based, human; conditions: pBR322/BstNI DNA transfection, Lucia luciferase at 48 h, relative to 10 uM compound 39
Description: HCT116 dual cells (Invivogen, San Diego, Calif., USA) are derived from the human HCT116 colorectal carcinoma cell line. Cells have been selected for the stable integration of SEAP and Luciferase reporter genes, which expression is under the control of 5 tandem response elements for NF-KB/AP1 and STAT1/STAT2, respectively. The cell line was used to monitor Type I interferon induction and subsequent signaling by measuring the activity of the Lucia luciferase secreted in the culture medium.
HCT116 cells were plated in 96-well plate(s) at 40,000 cells/well in 100 uL DMEM supplemented with 10% FBS and 25 mM Hepes (pH 7.2-7.5). After overnight settling, cells were treated with TREX1i for 4 h (maximum DMSO fraction was 0.1%) before 1.25 ug/mL pBR322/BstNI restriction digest (New England Biolabs, Ipswich, Mass., USA) was transfected with Lipofectamine LTX (ThermoFisher, Grand Island, N.Y., USA), according to product manual recommendations. Briefly, Lipofectamine LTX (0.4 uL/well) was diluted in OptiMEM (5 uL/well). pBR322/BstNI (100 ng/well) was diluted in OptiMEM (5 uL/well) before Plus reagent (0.1 uL/100 ng DNA) was added. After 5 min incubation at room temperature, the DNA mixture was mixed dropwise with the diluted Lipofectamine LTX. After an additional 10 min incubation, the transfection mix (10 uL/well) was added to the cells. Cells were maintained at 37° C. for 48 h before monitoring the Lucia Luciferase activity from the cell culture medium. EC50 values were calculated by comparing the measured luminescence relative to 10 uM compound 39 (100% inhibition) and no inhibitor (0% inhibition) controls using non-linear least-squares four parameter fits in either Genedata Screener or GraphPad Prism (GraphPad Software, Inc.).

[2] = Homo sapiens, HCT-116, 4 h pre-treatment

SMILES	IC50 [1]	IC50 (full length human TREX1)	EC50 (HCT116 dual cells; [2])	EC50 (HCT116 dual cells; 4 h pre-treatment)
CN(Cc1cccc(Cl)c1)c1nc(C(=O)Nc2cnoc2)c(O)c(=O)n1C [Example 8]	1 to 10 µM	< 0.1 µM	1 to 10 µM	–
CN(Cc1ccc2ccccc2c1)c1nc(C(=O)Nc2cnoc2)c(O)c(=O)n1C [Example 14]	1 to 10 µM	< 0.1 µM	10 to 100 µM	–
CN(Cc1ccccc1)c1nc(C(=O)Nc2cnoc2)c(O)c(=O)n1C [Example 2]	1 to 10 µM	< 0.1 µM	1 to 10 µM	–
CN(Cc1ccccc1Cl)c1nc(C(=O)Nc2cnoc2)c(O)c(=O)n1C [Example 74]	1 to 10 µM	< 0.1 µM	1 to 10 µM	–
CN(Cc1cc(Cl)ccc1Cl)c1nc(C(=O)Nc2cnoc2)c(O)c(=O)n1C [Example 5]	1 to 10 µM	< 0.1 µM	1 to 10 µM	–
CN(Cc1ccccn1)c1nc(C(=O)Nc2cnoc2)c(O)c(=O)n1C [Example 22]	1 to 10 µM	0.1 to 1 µM	10 to 100 µM	–
CC(C)N(Cc1ccccc1)c1nc(C(=O)Nc2cnoc2)c(O)c(=O)n1C [Example 29]	1 to 10 µM	< 0.1 µM	10 to 100 µM	–
Cc1cccnc1C(c1ccccc1)N(C)c1nc(C(=O)Nc2cnoc2)c(O)c(=O)n1C (single isomer, unassigned) [Example 58]	1 to 10 µM	< 0.1 µM	1 to 10 µM	–
CN(Cc1ccc(Cl)cc1)c1nc(C(=O)Nc2cnoc2)c(O)c(=O)n1C [Example 9]	10 to 100 µM	< 0.1 µM	10 to 100 µM	–
CN(Cc1cccnc1)c1nc(C(=O)Nc2cnoc2)c(O)c(=O)n1C [Example 32]	1 to 10 µM	< 0.1 µM	10 to 100 µM	–
Cc1cc(C(c2ccccc2Cl)N(C)c2nc(C(=O)Nc3cnoc3)c(O)c(=O)n2C)ccn1 (single isomer, unassigned) [Example 89]	< 1 µM	< 0.1 µM	< 1 µM	–
CN(Cc1cccc2c1cnn2C)c1nc(C(=O)Nc2cnoc2)c(O)c(=O)n1C [Example 31]	1 to 10 µM	< 0.1 µM	1 to 10 µM	–
CN(c1nc(C(=O)Nc2cnoc2)c(O)c(=O)n1C)C(c1ccccc1)c1ncccc1Cl (single isomer, unassigned) [Example 53]	< 1 µM	< 0.1 µM	< 1 µM	–
Cc1ccc(C(c2ccccc2)N(C)c2nc(C(=O)Nc3cnoc3)c(O)c(=O)n2C)cn1 (single isomer, unassigned) [Example 44]	< 1 µM	< 0.1 µM	–	< 1 µM
CC(c1c(Cl)cccc1Cl)N(C)c1nc(C(=O)Nc2cnoc2)c(O)c(=O)n1C (single isomer, unassigned) [Example 70]	< 1 µM	< 0.1 µM	1 to 10 µM	–
Cc1c(-c2ccncc2CN(C)c2nc(C(=O)Nc3cnoc3)c(O)c(=O)n2C)cnn1C [Example 35]	1 to 10 µM	< 0.1 µM	10 to 100 µM	–
CN(c1nc(C(=O)Nc2cnoc2)c(O)c(=O)n1C)C(c1ccccc1Cl)C1CC1 (single isomer, unassigned) [Example 69]	< 1 µM	< 0.1 µM	–	< 1 µM
CN(Cc1cccc2ccccc12)c1nc(C(=O)Nc2cnoc2)c(O)c(=O)n1C [Example 15]	1 to 10 µM	< 0.1 µM	1 to 10 µM	–

More lines, now with the values ahead:

IC50 [1]	IC50 (full length human TREX1)	EC50 (HCT116 dual cells; [2])	EC50 (HCT116 dual cells; 4 h pre-treatment)	SMILES
< 1 µM	< 0.1 µM	–	1 to 10 µM	CCN(c1nc(C(=O)Nc2cnoc2)c(O)c(=O)n1C)C(c1ccccc1)c1ccccc1Cl (single isomer, unassigned) [Example 92]
< 1 µM	< 0.1 µM	< 1 µM	–	CN(c1nc(C(=O)Nc2cnoc2)c(O)c(=O)n1C)C(c1ccccc1)c1cccc(C#N)c1 (single isomer, unassigned) [Example 50]
< 1 µM	< 0.1 µM	10 to 100 µM	–	Cn1c(N(CCOc2ccccc2)Cc2ccccc2)nc(C(=O)Nc2cnoc2)c(O)c1=O [Example 16]
< 1 µM	< 0.1 µM	–	< 1 µM	CN(c1nc(C(=O)Nc2cnoc2)c(O)c(=O)n1C)C(c1ccccc1)c1ccccc1Cl (single isomer, unassigned) [Example 40]
< 1 µM	< 0.1 µM	–	1 to 10 µM	Cc1cccc(Cl)c1C(c1ccccn1)N(C)c1nc(C(=O)Nc2cnoc2)c(O)c(=O)n1C (single isomer, unassigned) [Example 63]
< 1 µM	< 0.1 µM	–	< 1 µM	CN(c1nc(C(=O)Nc2cnoc2)c(O)c(=O)n1C)C(c1ccccn1)c1ccccc1Cl (single isomer, unassigned) [Example 57]
< 1 µM	< 0.1 µM	< 1 µM	–	Cc1ncc(C(c2ccccc2Cl)N(C)c2nc(C(=O)Nc3cnoc3)c(O)c(=O)n2C)cn1 (single isomer, unassigned) [Example 81]
< 1 µM	< 0.1 µM	< 1 µM	–	CN(c1nc(C(=O)Nc2cnoc2)c(O)c(=O)n1C)C(c1ccccn1)c1ccccc1Cl (single isomer, unassigned) [Example 56]
